Results as given in PubChem BioAssay AID743432 (The Scripps Research Institute Molecular Screening Center, 2014).
The source made the active and inactive calls. No rule for the calls is given here.

Target: Sphingosine 1-phosphate receptor 4 (Homo sapiens) (UniProt O95977)
Assay: S1P4 receptor antagonists, late-stage follow-up, selectivity assay for S1PR3 antagonist project, cell-based, FRET, dose response (AID 743432)
Conditions: S1P4 cell line

Sphingosine 1-phosphate receptor 4 (Homo sapiens), sequence (O95977 whole entry, looked up): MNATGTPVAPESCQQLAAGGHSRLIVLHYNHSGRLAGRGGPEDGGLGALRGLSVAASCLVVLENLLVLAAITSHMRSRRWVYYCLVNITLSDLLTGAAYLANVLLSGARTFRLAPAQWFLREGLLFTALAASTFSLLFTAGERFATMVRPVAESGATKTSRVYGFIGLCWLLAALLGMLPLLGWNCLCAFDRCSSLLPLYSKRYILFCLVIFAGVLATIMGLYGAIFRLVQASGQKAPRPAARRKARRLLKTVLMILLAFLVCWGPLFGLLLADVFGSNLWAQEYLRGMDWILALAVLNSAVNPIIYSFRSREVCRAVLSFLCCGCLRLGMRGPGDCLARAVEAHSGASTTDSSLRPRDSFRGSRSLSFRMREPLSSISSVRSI

## O=C(NC(c1cccc(Cl)c1)c1nc(-c2ccccc2)no1)c1cc(Cl)cc(Cl)c1 (stereo not given)
  IC50: > 50 µM (inactive)

## O=C(NC(c1ccc(Cl)c(Cl)c1)c1nc(-c2ccccc2)no1)c1ccc(Cl)c(Cl)c1 (stereo not given)
  IC50: > 50 µM (inactive)

## N#Cc1ccc(C(=O)NC(c2ccc(Cl)c(Cl)c2)c2nc(-c3ccccc3)no2)cc1 (stereo not given)
  IC50: 3.1 µM

## O=C(NC(c1ccc(Br)cc1)c1nc(-c2ccccc2)no1)c1ccc(Cl)c(Cl)c1 (stereo not given)
  IC50: > 50 µM (inactive)

## Cc1ccc(C(=O)NC(c2ccccc2)c2nc(-c3ccccc3)no2)cc1 (stereo not given)
  IC50: > 50 µM (inactive)

## CCc1ccc(C(NC(=O)c2cccc(Cl)c2)c2nc(-c3ccccc3)no2)cc1 (stereo not given)
  IC50: > 50 µM (inactive)

## Cc1ccc(C(NC(=O)c2cccc(Cl)c2)c2nc(-c3ccccc3)no2)cc1 (stereo not given)
  IC50: > 50 µM (inactive)

## O=C(NC(c1ccc(Cl)cc1)c1nc(-c2ccccc2)no1)c1ccc(Cl)c(Cl)c1 (stereo not given)
  IC50: > 50 µM (inactive)

## O=C(NC(c1cccc(Cl)c1)c1nc(-c2ccccc2)no1)c1cccc(Cl)c1 (stereo not given)
  IC50: 5.2 µM

## O=C(NC(c1ccccc1)c1nc(-c2ccccc2)no1)c1cccc(Cl)c1 (stereo not given)
  IC50: > 50 µM (inactive)

## O=C(c1cccc(Cl)c1)N(CCO)C(c1ccc(Cl)c(Cl)c1)c1nc(-c2ccccc2)no1 (stereo not given)
  IC50: inactive

## O=C(NC(c1ccc(Cl)cc1)c1nc(-c2cccc(Cl)c2)no1)c1cccc(Cl)c1 (stereo not given)
  IC50: > 50 µM (inactive)

## COc1ccc(C(=O)NC(c2ccccc2)c2nc(-c3ccccc3)no2)cc1 (stereo not given)
  IC50: > 50 µM (inactive)

## O=C(NC(c1ccccc1)c1nc(-c2ccccc2)no1)c1cccc(Cl)n1 (stereo not given)
  IC50: > 50 µM (inactive)

## O=C(NC(c1ccc(Cl)cc1)c1nc(-c2ccccn2)no1)c1cccc(Cl)c1 (stereo not given)
  IC50: > 50 µM (inactive)

## O=C(NC(c1cccc(Cl)c1)c1nc(-c2ccccc2)no1)c1ccc(Cl)c(Cl)c1 (stereo not given)
  IC50: > 50 µM (inactive)

## O=C(NC(c1ccc(Cl)c(Cl)c1)c1nc(-c2ccccc2)no1)c1ccccc1 (stereo not given)
  IC50: > 50 µM (inactive)

## O=C(NC(c1ccccc1)c1nc(-c2ccccc2)no1)c1cccc(Br)c1 (stereo not given)
  IC50: > 50 µM (inactive)

## O=C(NC(c1nc(-c2ccccc2)no1)C1CCCCC1)c1ccc(Cl)c(Cl)c1 (stereo not given)
  IC50: > 50 µM (inactive)

## O=C(NC(c1ccc(Cl)cc1)c1nc(-c2ccccc2)no1)c1ccc(Cl)c(Br)c1 (stereo not given)
  IC50: > 50 µM (inactive)
